Earlier results, collected in article PMC3836577 (Microbial Biotechnology, 2010).
Ends that are not written are not given here.

System: S. aureus Sa113
Conditions: literature value for comparison; ref Peschel et al., 2001

nisin (ITSISLCTPGCKTGALMGCNMKTATCHCSIHVSK; also: lantibiotic thioether rings and dehydrated residues not placed; UniProt P13068 24-57, looked up)
Activity against Sa113 (MIC): 14 µM
